This test has as its system HEK293 cytotoxicity, cell viability. Kind of test: HEK293 cell viability reduction – revised, SAR follow-up (AID 2335).

Calls of active or inactive are those of the source. The rule behind the calls is not given here. Bounds are passed on as bounds.

With `Cn1nccc1C(=O)NC1CCCc2c1cnn2-c1ccccc1F` (stereo unspecified), the IC50 was > 20 µM (inactive).

For orientation: IC50 means the concentration needed to halve the response being measured.
